Experimental data taken from patent US6207656A, “Vitamin D analogues and their neuronal effects” (Cephalon, Inc., priority 1998, dated 2001).
“Also recorded” adds a separate entry of the source.

How the values were obtained:
[1] = Serum calcium / hypercalcemia in rats (2 weeks dosing, 28-day toxicology); assay type: in vivo, Sprague Dawley rats
[2] = Calcemic activity in rats, serum calcium after 7 days oral gavage; assay type: in vivo, LEW/MOL female rats; settings: for Calcium in Serum: Table 2A (vehicle 2.46 ± 0.06), ± S.D.
Procedure: For determining calcemic activity, LEW/MOL female rats (130-170 g) were administered test compounds daily for 7 days by oral gavage. Control rats received the vehicle. Each group consisted of 3 rats. Blood was collected by cardiac puncture on day 7.

NT-3 mRNA = assay: Induction of NT-3 mRNA expression in rats; assay type: in vivo, Sprague Dawley rats; settings: 0.3, 1.0 and 3.0 μg/kg oral, 8 days; hippocampus (FIG. 1)
Procedure: (§1) Young adult male Sprague Dawley rats (250-350 g) were administered Compound (A), Compound (E), or a vehicle (80% propylene glycol (human formulation grade; Spectrum Quality Products, Inc., Gardena, Calif., catalog #PR130-55003) and 20% phosphate buffer, pH 9.2) at doses ranging from 0.1 to 5.5 μg/kg daily by oral gavage for eight days. Five hours after the last dose, the animals were sacrificed by decapitation. Each brain was quickly removed and chilled in ice-cold saline. The brain was cut into 2 mm thick coronal sections. Portions of the hippocampus, encompassing the CA1 region, and the medial septum were removed by punching 2 mm^3 sections using a calibrated tissue punch. Punched sections were immediately frozen on dry ice and then stored at -70° C. RNA was prepared from dissected tissue pieces.
(§2) Punches of tissue were homogenized in […] RNAzolB™ (Bioteex Laboratories, Houston, Tex.) using a homogenizer (Tekmar, Germany) until fully homogenized and then 250 μl RNAzilB™ was added. Typically, punches from the corresponding regions of brains of 2 to 3 animals were combined together. RNA was prepared as recommended by the manufacturer (Biotecx Laboratories). […] Concentration of RNA was measured spectrophotometrically and the quality of RNA was visualized on a nondenaturing agarose gel. […]

[3] = Serum calcium in primates; assay type: in vivo, monkey; settings: 10 and 30 μg/kg/day oral, 8 days
GDNF mRNA = assay: Induction of GDNF mRNA expression in rats; assay type: in vivo, Sprague Dawley rats; settings: 0.3, 1.0 and 3.0 μg/kg oral, 8 days; septum and hippocampus (FIG. 1)
Procedure: as §1, §2

[4] = tested on: acrylamide-induced peripheral neuropathy in rats; assay: Acrylamide-induced peripheral neuropathy, landing foot spread; assay type: in vivo, rat
Procedure: Peripheral neuropathy was induced in rats by the administration of the neurotoxin acrylamide, 50 mg/kg, IP, 3×/week. The acrylamide treatment occurred during the first three weeks of the experiment. After acrylamide was discontinued, the animals were allowed to recover for an additional 3-5 weeks. The ability of Compound (A) or Compound (B) to either slow the onset of peripheral neuropathy, reduce the severity of the peripheral neuropathy or enhance the recovery from peripheral neuropathy was determined. The compounds were administered either orally (Compound (A)) or via subcutaneous Alzet mini-pumps (I month model)(Compounds (A) and (B)) beginning 3 days prior to the first dose of acrylamide. Compound (A) was administered orally at doses of 0.3, 1.0 and 3.0 μg/kg/day and by mini-pump at doses of 10, 55, 100, 330 and 550 ng/day. Compound (B) was administered by mini-pump at doses of 10, 33, 100, 330 and 1000 ng/day. These dose ranges were selected to limit toxicity and to bracket the dose range used in fimbria fornix lesion experiments. The mini-pumps were replaced at the end of the fourth week so that the test compound was on board for the duration of the experiment. In FIG. 11B, the data from FIG. 11A was averaged.

[5] = tested on: ChAT producing cholinergic cells; assay: Fimbria fornix lesion model, cholinergic cell number (ChAT positive septal neurons); assay type: in vivo, rat
Procedure: Fimbria fornix lesioned animals treated orally with Compound (A) (n=10) or vehicle (n=10) were assessed using acetyl cholinesterase staining of both the lesion area and hippocampal formation. Animals received either Compound (A) (1 μg/day) or vehicle via oral gavage (14 days). […] Neurol. 284:187 (1989).
Coronal sections were cut at […] with a cryostat and collected throughout the medial septum. Every fourth section was processed for the visualization of ChAT positive neurons. Approximately 12 sections were assessed per brain. Cholinergic cells were counted and expressed as a ratio of lesioned to unlesioned control side. […] The results, presented in FIG. 9, indicate that lesioned animals treated with Compound (A) have an approximate 30% increase in the number of cholinergic cells as compared to vehicle treated lesioned animals.

## C=C1/C(=C\C=C2/CCC[C@]3(C)[C@@H]([C@@H](C)[C@@H](C#CCC(O)(CC)CC)OCC)CC[C@@H]23)C[C@@H](O)C[C@@H]1O [Compound (A), 1(S),3(R)-dihydroxy-20(R)-(1-ethoxy-5-ethyl-5-hydroxy-2-heptyn-1-yl)-9,10-seco-pregna-5(Z),7(E),10(19)-triene]
[1]; 1.0 μg/kg, after 2 weeks of dosing
  serum calcium: did not increase serum calcium
[1]; 1.0 μg/kg, considered in toto
  calcemic classification of dose: hypercalcemic dose when considered in toto
[1]; 1 μg/kg, female vs male Sprague Dawley rats, data not shown
  hypercalcemia, 28-day toxicology studies: hypercalcemic to female, but not male, Sprague Dawley rats
[1]; 3.0 μg/kg
  hypercalcemia: hypercalcemic to the animals
[2]; 0.1 μg/kg/day p.o.
  Calcium in Serum: 2.52 ± 0.02 mmol/L
[2]; 1.0 μg/kg/day p.o.
  Calcium in Serum: 2.62 ± 0.02 mmol/L
[2]; 10 μg/kg/day p.o., Table 2A
  Calcium in Serum column: toxicity: toxic
[2]; rat, in vivo, po
  Calcemic Activity (%): 24%
[2]; summary statement
  calcemic classification: exemplary of low calcemic vitamin D3 analogues
NT-3 mRNA
  production of NT-3 mRNA: facilitated the production of NRT-like mRNA, GDNF mRNA, NT-3 mRNA
[3]
  serum calcium levels: did not increase serum calcium levels and were not hypercalcemic doses
GDNF mRNA
  production of GDNF mRNA: facilitated the production of NRT-like mRNA, GDNF mRNA
[4]; continuously pumped (mini-pump)
  development of peripheral neuropathy: did not prevent the development of the acrylamide-induced peripheral neuropathy
[4]; mini-pump
  recovery from peripheral neuropathy: improved recovery; also recorded: an effect upon the recovery from the lesion was apparent
[4]; mini-pump, recovery period
  landing foot spread: effective in reducing landing foot spread, but only during the recovery period; also recorded: decreased landing foot spread during the recovery period
[4]; oral
  development of peripheral neuropathy: prevented the development of acrylamide-induced peripheral neuropathy
  severity of neuropathy and functional recovery: dose-dependent effects on both the severity of the acrylamide-induced peripheral neuropathy as well as the ability of the animals to functionally recover from the lesion
[4]; oral 3.0 μg/kg/day
  landing foot spread: statistically significant decrease in landing foot spread
[4]; oral 3.0 μg/kg/day, onset days 1-24, recovery days 24-42
  time course of decrease in landing foot spread: occurred during the onset of the lesion (days 1-24) and were sustained through the recovery phase
[4]; oral, FIGS. 11A-11C legend
  landing foot spread: decreases landing foot spread
[5]; 1 μg/day oral gavage, 14 days (FIG. 9)
  increase in number of cholinergic cells vs vehicle treated lesioned animals: ~30%
[5]; FIG. 9, partially fimbria fornix lesioned animals vs vehicle
  septal neurons expressing ChAT: increase in septal neurons expressing ChAT
